Experiments:
[1] = test system: Triple negative breast tumor cells (MDAMB231); assay: Observation of triple negative breast tumor cells after treatment (FIG. 3/4); format: cell-based; conditions: MDAMB231, treated for 24 h
Protocol: FIG. 3 illustrates the untreated triple negative tumor cells, presented in large numbers.
FIG. 4 illustrates the tumor cells after being treated with the peptide 3-NantC (SEQ ID 1) for 24h. The arrows indicate the tumor cells, which are shown in smaller numbers and with vesicles when compared with the untreated tumor cells.

[2] = test system: MDAMB231 cells (triple negative); assay: MTT cell viability, tumor cells; format: cell-based
Protocol: (§1) For the method of MTT, the cells were plated in 96-well sterile plates for cell culture with a cap at the density of 2 × 10^4 cells/well for treatments lasting 24 h and 1 × 10^4 cells/well for treatments lasting 48 h or more, completing the volume to 100 µL with culture medium. The plates were incubated for 8-16 h in an incubator at 37° C. and 5% CO2. The next day, the treatments were prepared in culture medium, applying 200 µL/well at the desired concentration, and the plates were placed in an incubator at 37° C. and 5% CO2for the duration of treatment. After the treatment period, 20 µL/well of a MTT solution was added in PBS (1×) at a concentration of 5 mg/mL, and the dye was incubated at 37° C. and 5% CO2 for 2.5 h. After incubation with MTT, Formazan salts were solubilized with the addition of 200 µL of dimethylsulfoxide solution (DMSO): isopropanol (3:1) and agitated for at least 15 minutes at room temperature. After complete dissolution of the salts, the absorbance was read in a spectrophotometer at 570 nm with endpoint protocol.
(§2) The calculation of cell viability was performed using the formula: […]
(§3) O.D.: optical density captured by spectrophotometer
NOTE: The Basal O.D. is the one found in the blank wells.
In order to determine the efficacy (comparison of doses and times for the MDAMB231 cell line) and safety (comparison between the effects on MDAMB231 and HDFa cells) of the peptide SEQ ID 1 - MFYPDSRCRGPSET (C-terminal region of Crotoxin B), named 3-NAntC, the Analysis of Variance (ANOVA) with Bonferroni post-hoc test was applied to the significance of 5% in GraphPad Prism software version 6.0.

[3] = test system: benign skin cells - fibroblasts (HDFa); assay: MTT cell viability, benign fibroblasts; format: cell-based; conditions: HDFa fibroblasts, 24, 48 and 72 h
Protocol: as §1, §2, §3
NOTE: The Basal O.D. is the one found in the blank wells. […]

[4] = test system: MDAMB231 cells; assay: Lactate dehydrogenase (LDH) release; format: cell-based; conditions: MDAMB231, 24, 48 and 72 h
Protocol: The lactate dehydrogenase (LDH) is a cytosolic enzyme present in most mammalian cells.
For LDH release protocol, after treatments were performed for the MTT protocol, 20 µL of the supernatant of each well was transferred to an EIA/RIA plate. Then, 20 µL/well of the Reaction Mixture from the CyQUANT™ LDH Cytotoxicity Assay kit and reaction was incubated at RT for 30 minutes in the dark. Then, 60 µL/well of the Stop Solution from the kit was added and plate was read in a spectrophotometer at both 490 nm and 650 nm.
The calculation of LDH release was performed as follows: • 1. The absorbance measured at 650 nm was subtracted from the absorbance measured at 490 nm. • 2. This formula was applied: […]
O.D.: optical density captured by spectrophotometer NOTE: The Basal O.D. is the one found in the blank wells (only reaction mixture and stop solution).
(§4) In order to determine the effects of the peptide in LDH release, autophagy induction and apoptosis/necrosis profile of MDAMB231 cell line, the Analysis of Variance (ANOVA) with Dunnet and Bonferroni post-hoc tests were applied to the significance of 5% in GraphPad Prism software version 6.0.

[5] = test system: MDAMB231 cell line; assay: Apoptosis/necrosis flow cytometry (Annexin V-FITC / propidium iodide); format: cell-based
From the text: Annexin V is a potent marker for apoptosis since it binds to the phosphatidylserine of the cell membrane. This binding only occurs when the phosphatidylserine is externalized in the membrane, which is one of the first signals of apoptosis death. Meanwhile propidium iodide only enters the cells after a membrane rupture and can indicate a final step to cell death. The double labeling with these markers allows to distinguish apoptosis and necrosis death through the following characterization: • Annexin V^- / Pl^-: live cells • Annexin V^+ / Pl^-: cells in early apoptosis • Annexin V^+ / Pl^+: cell in late apoptosis • Annexin V^- / Pl^+: cells in necrosis
For Apoptosis/ Necrosis protocol, cells were plated 6-well sterile plates for cell culture with a cap at the density of 2.5 × 10^5 cells/well for treatments lasting 24 h or more, completing the volume with 1000 µL culture medium. The plates were incubated for 8-16 h in an incubator at 37° C. and 5% CO2. The next day, the treatments were prepared in culture medium, applying 2000 µL/well at the desired concentration, and the plate was placed in an incubator at 37° C. and 5% CO2 for the duration of treatment. After the treatment period, cells were collected in a conic 15 mL tube and washed with 200 µL of binding buffer (1×) from the FITC Annexin V Apoptosis Detection Kit I. Cells were resuspended in 100 µL/tube of binding buffer (1×) and 1 µL of Annexin V-FITC was added to each tube except the blank. Cells were then incubated for 20 min. in ice and in the dark. Then, 50 µL/tube of binding buffer was added and cells were labeled with 2 µL of Propidium Iodide (PI) at 100 µg/mL and read at the flow cytometer for size and fluorescent content (FITC and PI).
as §4

[6] = test system: zebrafish embryos; assay: Tolerability in zebrafish embryos; format: in vivo; conditions: even at a dose 50,000 times higher than the in vitro MDAMB231 IC50 at 24 h
[7] = test system: NFKB, Caspases (Caspase 9); assay: Western blot protein expression; format: cell-based; conditions: compared to the negative control

## CSCC[C@H](N)C(=O)N[C@@H](Cc1ccccc1)C(=O)N[C@@H](Cc1ccc(O)cc1)C(=O)N1CCC[C@H]1C(=O)N[C@@H](CC(=O)O)C(=O)N[C@@H](CO)C(=O)N[C@@H](CCCNC(=N)N)C(=O)N[C@@H](CS)C(=O)N[C@@H](CCCNC(=N)N)C(=O)NCC(=O)N1CCC[C@H]1C(=O)N[C@@H](CO)C(=O)N[C@@H](CCC(=O)O)C(=O)N[C@H](C(=O)O)[C@@H](C)O [3-NAntC, [H]-MFYPDSRCRGPSET-[OH]]
[1]
  number of tumor cells compared to no treatment: lower numbers
  number of vesicles compared to no treatment: greater number of vesicles
[2]; MDAMB231, SEQ IDs 2-10 compared to SEQ ID 1
  compared efficacy in decreasing MDAMB231 cells' viability (MTT, FIG. 13/14): highest antitumor effect
[2]; MDAMB231, as early as 48 h of treatment
  antitumor effect compared to Cisplatin (MTT): exceeds the antitumor effect of Cisplatin
[3]
  effect on viability of benign skin cells (MTT): not decreasing the viability
[4]
  LDH release: does not show any significant increase
[5]; MDAMB231, 24 and 48 h, 0.8 µg/mL
  percentage of cells in necrosis: maintaining the percentage of cells in necrosis
[5]; MDAMB231, 24 h, 0.8 µg/mL
  increase of apoptosis rate: about 20%
[5]; MDAMB231, 48 h, 0.8 µg/mL
  increase of apoptosis rate: about 20%
[5]; MDAMB231, 72 h, highest dosage
  increase of apoptosis rate: 28.73%
[6]
  embryo survival: high embryo survival
  tolerability in zebrafish embryos: well tolerated
[7]
  activation of Caspases, namely Caspase 9: greater activation
  activation of pro-survival signals such as NFKB: may inhibit the activation
